Reference: US10638959B2, “Oral pH and buffering capacity modifiers” (CAO Group, LLC, priority 2010, dated 2020)
Entries after “also recorded” stand apart in the source; their conditions may differ.

Experiment: Immediate release of calcium ion of various salts by a calcium test kit by EM Quant
Type: physicochemical
Details: contact with water

| Compound | Immediate release of calcium ion (availability of calcium ion) |
| --- | --- |
| CC(O)C(=O)[O-].CC(O)C(=O)[O-].O.O.O.O.O.[Ca+2] (centres unmarked) [Calcium lactate pentahydrate] | most readily available calcium ion source |
| Calcium ascorbate [Calcium ascorbate (citrate)] | most readily available calcium ion source; also recorded: provided calcium ions on contact with water |
